# Columns and labels:
# [1] = system: Gram-positive organisms, including Listeria, Clostridium spp., Enterococcus, Staphylococcus and Streptococcus; details: cited from earlier work
# Staph. aureus ATCC6538 = assay: High pressure and lacticin 3147 inactivation in milk (10% RSM); type: cell-based, Staphylococcus aureus
# Protocol: For the inactivation of Staph. aureus ATCC6538 a liquid preparation of lacticin 3147 was prepared using hydrophobic adsorption chromatography. For studies on inactivation of L. innocua DPC1770 a food grade powdered preparation of lacticin 3147 was manufactured as described above with the following modification; a 1% demineralised whey powder solution was fermented with L. lactis subsp. lactis DPC3147 under pH controlled conditions of pH 6.0 for 18 hours.
# Staph. aureus ATCC6538 cells were resuspended in 10% RSM and aliquoted into sterile 700 μl PCR eppendorfs prior to placing in sterile stomacher bags (Seward Ltd., London, UK). Ten millilitre volumes of L. innocua DPC1770 cells were resuspended in 20% reconstituted demineralised whey powder aliquoted into sterile stomacher bags. Samples were individually vacuum sealed prior to placing in the pressure vessel (Stansted Fluid Power Ltd., Stansted, England). The vessel consisted of a stainless-steel cylinder (37 mm diameter×300 mm height) filled with a 15% (v/v) caster oil in ethanol solution which acts as the hydrostatic pressurisation medium. Samples were treated for 30 min at 25° C. in the pressure range 150 to 600 MPa, in addition to a control sample being held at atmospheric pressure (0.1 MPa). […] The chamber temperature was determined by means of a thermoregulating system which circulated to maintain the chamber temperature.
# [2] = system: L. lactis subsp lactis HP; assay: Bacteriocin activity by agar well diffusion assay; type: cell-based, Lactococcus lactis; details: for Bacteriocin activity: 10% reconstituted demineralized whey powder; for Lacticin 3147 activity: overnight incubation at 30° C.
# Protocol: Bacteriocin activity was determined by the agar well diffusion assay as described by Parente and Hill (15). Molten agar was seeded with an indicator strain and dispensed into petri dishes. Wells of approximately 4.6 mm in diameter were bored in the agar and a 50 μl volume of a two fold serial dilution of a bacteriocin preparation was dispensed into each well. Bacteriocin solution was prepared by centrifuging the culture and heat treating the supernatant at 70° C. for 10 minutes prior to carrying out the dilution series. The plates were then incubated at either 30° C. or 37° C., depending on the indicator strain used. Bacteriocin activity was calculated as the inverse of the last dilution that gave a definite zone of clearance after overnight incubation. Activity units (AU) were expressed per milliliter (1/dilution, ×20).
# (§1) Activity of both lacticin 3147 preparations was determined by the agar well diffusion assay as described by Parente and Hill (15). Molten agar was seeded with the indicator strain L. lactis subsp. lactis HP and dispensed into petri dishes. Wells of approximately 6.0 mm in diameter were bored in the agar and a 50 μl volume of a two fold serial dilution of a bacteriocin preparation was dispensed into each well. The plates were then incubated at 30° C. Bacteriocin activity was calculated as the inverse of the last dilution that gave a definite zone of clearance after overnight incubation. Activity units (AU) were expressed per milliliter (1/dilution, ×20). Activity may also be expressed as zone diameter (mm), where the diameter of the first zone (neat, undiluted sample) of the dilution series is recorded.
# L. lactis HP = assay: Effect of high pressure on lacticin 3147 activity (well diffusion assay); type: cell-based, Lactococcus lactis; details: pressures greater than 400 MPa
# Protocol: as §1
# Pressurised and non-pressurised solutions of lacticin 3147 were heat treated at 80° C. for 10 minutes prior to carrying out activity determination by the well diffusion assay using L. lactis HP as an indicator strain.
substance,measurement,setting,value
lacticin 3147,inhibitory spectrum,[1],inhibitory to a wide range of Gram-positive organisms
same,logs of kill,"Staph. aureus ATCC6538; combination of 250 MPa and lacticin 3147, 30 min at 25° C.",more than 6 logs
same,log reduction,Staph. aureus ATCC6538; concentrated lacticin 3147 from culture supernatant alone,1 log
same,Bacteriocin activity,"[2]; constant pH 6.0, 30° C.",5120 AU/ml
same,Bacteriocin activity,"[2]; constant pH 7.0, 30° C.",5120 AU/ml
same,Bacteriocin activity,"[2]; no pH control, 30° C.",640 AU/ml
same,Bacteriocin activity,"[2]; pH held constant at pH 6.5, 30° C.","10,240 AU/ml"
same,Effect of pasteurisation on bacteriocin activity,[2]; 72° C. for 15 sec,no effect
same,Bacteriocin activity during manufacture,[2]; after evaporation at 60° C. from 10% to 40% total solids,"40,960 AU/ml"
same,Activity of the concentrate following overnight crystallisation,[2]; cooled from 32° C. at 1° C. per hour overnight,remained stable
same,Bacteriocin activity during manufacture,"[2]; following the pH controlled 170 L fermentation (pH 6.5, 10% total solids)","10,240 AU/ml"
same,Lacticin 3147 activity,[2]; growth medium 10% reconstituted demineralised whey powder,"1,280 AU/ml"
same,Lacticin 3147 activity,"[2]; growth medium 10% reconstituted demineralised whey powder, listed as Lacticin 3147",1280 AU/ml
same,Lacticin 3147 activity,[2]; growth medium 10% reconstituted skimmed milk powder,"1,280 AU/ml"
same,Lacticin 3147 activity,"[2]; growth medium 10% reconstituted skimmed milk powder, listed as Lacticin 3147",1280 AU/ml
same,Lacticin 3147 activity,[2]; growth medium Cheddar cheese whey,"2,560 AU/ml"
same,Lacticin 3147 activity,"[2]; growth medium Cheddar cheese whey, listed as Lacticin 3147",2560 AU/ml
same,Lacticin 3147 activity,[2]; growth medium LM17,"2,560 AU/ml"
same,Lacticin 3147 activity,"[2]; growth medium LM17, listed as Lacticin 3147",2560 AU/ml
same,Lacticin 3147 activity,[2]; growth medium TY broth,640 AU/ml
same,Lacticin 3147 activity,[2]; growth medium whey protein concentrate (WPC35),320 AU/ml
same,Lacticin 3147 activity,[2]; growth medium whole milk,"2,560 AU/ml"
same,Lacticin 3147 activity,"[2]; growth medium whole milk, listed as Lacticin 3147",2560 AU/ml
same,Lacticin 3147 activity expressed as AU/g of dry matter throughout manufacture,"[2]; remained constant through pasteurisation, evaporation, crystallisation, spray drying","102,400 AU/g"
same,change in bacteriocin activity after pressure treatment,L. lactis HP,doubling of activity
